Reference: publication PMC9486951, “Tetramate Derivatives by Chemoselective Dieckmann Ring Closure of threo-Phenylserines and Their Antibacterial Activity” (The Journal of Organic Chemistry, 2022)
In brackets after ≈: the same amount, converted by molar mass. Read-outs that look alike come from different tables or passages of the source.

Assays:
[1] = test system: MRSA; assay: Broth dilution MIC against MRSA in the presence of serum albumin; type: cell-based; details: Staphylococcus aureus, one-third the serum albumin concentration found in human blood
Description: (§1) As tetramic acids are well-known metal chelators,[1],[20] of interest was to investigate whether this loss of activity was due to metal chelation or plasma protein binding (PPB), specifically with human serum albumin (HSA).[17],[18] To answer this question, bicyclic tetramate 12a was tested against MRSA using a broth dilution assay, under standard conditions and with the addition of similar metal cations (Fe, Ca, Mg, and Zn) with concentration as that found in blood, respectively. […] Bicyclic tetramate 12a was also tested against MRSA using a broth dilution assay, under standard conditions but in the presence of one-third the serum albumin concentration as that found in human blood. […] A review has shown that PPB strongly correlates with increased hydrophobicity, and this might point to a problem with the tetramate class, which clearly depends upon hydrophobicity for their antibacterial activity, as noted above.[21]

[2] = test system: methicillin-resistant Staphylococcus aureus (MRSA); assay: MIC determination by broth dilution assay against MRSA; type: cell-based
Description: (§2) With access to these derivatives routinely available, an assessment of their antibacterial activity was made by measuring minimum inhibitory concentration (MIC) values (Table S6) against two example organisms, methicillin-resistant Staphylococcus aureus (MRSA) and E. coli. […] By contrast, a more polar substituent at the C7-position (pyran 12t) compromised the antibacterial activity (125 μg/mL). […] Compound 13b had the same activity as 12g at 1.00 μg/mL. Overall, increasing lipophilicity corresponded to higher potency against MRSA. […]
(§3) Screening of compounds were performed by Oxford Antibiotic Group, Austria. For MIC determination by broth dilution assay, the samples were tested in a primary 96 well plates screening assay, in duplicate. The compounds were diluted in Mueller Hinton Broth (MHB) for bacterial screening to a stock solution of 1000 µg/mL, serial diluted and overlaid with a microbe solution in a concentration of 10^4 CFU/ml. […]

[3] = test system: MDCK cell line; assay: Cytotoxicity assay (Alamar blue), MDCK; type: cell-based; details: read-out: cell lines EC50, MDCK
Description: (§4) The selectivity of these compounds for activity against prokaryotic cells over mammalian cells was analyzed by considering their cytotoxicity against Hela, heK-293, CaCo, and MDCK […] cell lines, allowing estimation of the therapeutic ratio [EC50Hela cell line/MIC(S. aureus)] (Table 3). […]
(§5) Screening of compounds were performed by Oxford Antibiotic Group, Austria. […]
(§6) For cytotoxicity testing, the synthesized compounds were tested against four different cell lines: HeLa, HEK 293, MDCK and CaCo. The cells were seeded in a 96 well plate and incubated until a confluence of 80% was achieved (under physiological conditions - 37°C, 5% CO2 and 95% humidity). The samples were tested by serial dilution in triplicates with starting concentration of 250 µg/mL. After 24 and 48 hours the survival of cells was evaluated by microscope and measured with Alamar blue. IC50 values were obtained from the calibration curves. […]

[4] = test system: MRSA; assay: Broth dilution MIC against MRSA with added metal cations; type: cell-based; details: Staphylococcus aureus, addition of Fe, Ca, Mg and Zn at concentration as found in blood
Description: as §1

[5] = test system: heK-293 cell line; assay: Cytotoxicity assay (Alamar blue), heK-293; type: cell-based; details: Homo sapiens, HEK293; read-out: cell lines EC50, heK-293
Description: as §4, §5, §6

[6] = test system: Hela cell line; assay: Cytotoxicity assay (Alamar blue), Hela; type: cell-based, human; details: for EC50: Homo sapiens, HeLa, read-out: cell lines EC50, Hela
Description: as §4
as §3, with “CFU/ml. The plates were incubated for” for “CFU/ml.”
as §6

[7] = test system: CaCo cell line; assay: Cytotoxicity assay (Alamar blue), CaCo; type: cell-based; details: Homo sapiens; read-out: cell lines EC50, CaCo
Description: as §4, §5, §6

[8] = test system: E. coli; assay: MIC determination by broth dilution assay against E. coli; type: cell-based
Description: as §2, §3

[9] = Staphylococcus aureus, MRSA, Table 3, read-out: MIC(S. aureus)
[10] = Staphylococcus aureus, MRSA, Table S5, against S. aureus, read-out: MIC
[11] = Staphylococcus aureus, MRSA, broth dilution, read-out: MIC against MRSA
[12] = Staphylococcus aureus, MRSA, Table S6, read-out: MIC

MIC [2, 10] [µg/mL] | MIC [2, 11] [µg/mL] | MIC ([2]; Table S6) [µg/mL] | MIC [2, 12] [µg/mL] | SMILES | other results
0.25 | 0.25 | 0.25 |  | CC(C)(C)[C@@H]1O[C@H](c2ccccc2)[C@H]2C(O)=C(C(=O)NC34CC5CC(CC(C5)C3)C4)C(=O)N21 (mixture of isomers) [12a] | MIC [1]: 7.81 µg/mL; MIC [2, 9]: 0.3 µg/mL; MIC ([2]; Staphylococcus aureus, MRSA, broth dilution assay, standard conditions (control of metal cation experiment), read-out: MIC against MRSA, standard conditions): 0.49 µg/mL; EC50 [3]: 7.8 µg/mL; MIC [4]: 0.24 µg/mL; EC50 [5]: 31.3 µg/mL; therapeutic ratio / selectivity for bacteria over the Hela cell line ([6]; EC50 Hela cell line/MIC(S. aureus)): 26 fold; EC50 [6]: 7.8 µg/mL; EC50 [7]: 15.6 µg/mL
 | 3.9 |  | 3.9 | Cc1ccc([C@H]2O[C@@H](C(C)(C)C)N3C(=O)C(C(=O)NC45CC6CC(CC(C6)C4)C5)=C(O)[C@H]23)cc1 (mixture of isomers) [13a] | MIC ([2]; Table S5, against S. aureus): 3.9 µg/mL
 | 1 |  | 1 | CC(C)(C)[C@@H]1O[C@H](c2ccc(F)cc2)[C@H]2C(O)=C(C(=O)NC34CC5CC(CC(C5)C3)C4)C(=O)N21 (mixture of isomers) [compound 20] | MIC ([2]; Table S5, against S. aureus): 1.0 µg/mL
 | 7.8 |  | 7.8 | CC(C)(C)[C@@H]1O[C@H](c2ccc(Cl)cc2)[C@H]2C(O)=C(C(=O)NC34CC5CC(CC(C5)C3)C4)C(=O)N21 (mixture of isomers) [compound 21] | MIC ([2]; Table S5, against S. aureus): 7.8 µg/mL
 | 0.49 |  | 0.49 | CC(C)(C)[C@@H]1O[C@H](c2ccc(Br)cc2)[C@H]2C(O)=C(C(=O)NC34CC5CC(CC(C5)C3)C4)C(=O)N21 (mixture of isomers) [compound 22] | MIC ([2]; Table S5, against S. aureus): 0.49 µg/mL
 |  |  |  | CCOC(=O)C1=C(O)[C@@H]2[C@@H](c3ccccc3)O[C@@H](C(C)(C)C)N2C1=O (racemic) [10a] | antibacterial activity against MRSA (in words) [2]: no activity; antibacterial activity against E. coli (in words) [8]: no activity
 |  |  | 31.3 (≈ 86.1 µM) | CCOC(=O)C1=C(O)[C@@H]2[C@@H](c3ccc(F)cc3)O[C@@H](C(C)(C)C)N2C1=O (racemic) [10c] | MIC [2, 9]: 31.3 µg/mL (≈ 86.1 µM); EC50 [3]: 62.5 µg/mL (≈ 172 µM); EC50 [5]: 62.5 µg/mL (≈ 172 µM); EC50 [6]: 31.3 µg/mL (≈ 86.1 µM); EC50 [7]: 62.5 µg/mL (≈ 172 µM)
 |  |  | 15.6 (≈ 41.1 µM) | CCOC(=O)C1=C(O)[C@@H]2[C@@H](c3ccc(Cl)cc3)O[C@@H](C(C)(C)C)N2C1=O (racemic) [10d] | MIC [2, 9]: 15.6 µg/mL (≈ 41.1 µM); EC50 [3]: 62.5 µg/mL (≈ 165 µM); EC50 [5]: 31.3 µg/mL (≈ 82.4 µM); EC50 [6]: 31.3 µg/mL (≈ 82.4 µM); EC50 [7]: 31.3 µg/mL (≈ 82.4 µM)
 |  |  | 15.6 (≈ 36.8 µM) | CCOC(=O)C1=C(O)[C@@H]2[C@@H](c3ccc(Br)cc3)O[C@@H](C(C)(C)C)N2C1=O (racemic) [10e] | MIC [2, 9]: 15.6 µg/mL (≈ 36.8 µM); EC50 [3]: 62.5 µg/mL (≈ 147 µM); EC50 [5]: 62.5 µg/mL (≈ 147 µM); EC50 [6]: 31.3 µg/mL (≈ 73.8 µM); EC50 [7]: 62.5 µg/mL (≈ 147 µM)
7.8 (≈ 19.9 µM) | 7.8 (≈ 19.9 µM) | 7.8 (≈ 19.9 µM) |  | CC(C)(C)[C@@H]1O[C@H](c2ccccc2)[C@H]2C(O)=C(C(=O)Nc3ccccc3)C(=O)N21 (racemic) [12b] | 
3.9 (≈ 8.27 µM) | 3.9 (≈ 8.27 µM) | 3.9 (≈ 8.27 µM) |  | CC(C)(C)[C@@H]1O[C@H](c2ccccc2)[C@H]2C(O)=C(C(=O)Nc3ccc(Br)cc3)C(=O)N21 (racemic) [12c] | 
3.9 (≈ 8.92 µM) | 3.9 (≈ 8.92 µM) | 3.9 (≈ 8.92 µM) |  | CC(C)(C)[C@@H]1O[C@H](c2ccccc2)[C@H]2C(O)=C(C(=O)Nc3ccc([N+](=O)[O-])cc3)C(=O)N21 (racemic) [12d] | antibacterial activity against MRSA (in words) [2]: good bioactivity
1 (≈ 2.17 µM) | 1 (≈ 2.17 µM) | 1.0 (≈ 2.17 µM) |  | CC(C)(C)[C@@H]1O[C@H](c2ccccc2)[C@H]2C(O)=C(C(=O)Nc3ccc(C(F)(F)F)cc3)C(=O)N21 (racemic) [12e] | 
1 (≈ 2.27 µM) | 1 (≈ 2.27 µM) | 1.0 (≈ 2.27 µM) |  | Cc1cc(Cl)ccc1NC(=O)C1=C(O)[C@@H]2[C@@H](c3ccccc3)O[C@@H](C(C)(C)C)N2C1=O (racemic) [12g] | 
3.9 (≈ 8.85 µM) |  | 3.9 (≈ 8.85 µM) |  | Cc1ccc(NC(=O)C2=C(O)[C@@H]3[C@@H](c4ccccc4)O[C@@H](C(C)(C)C)N3C2=O)c(Cl)c1 (racemic) [12h] | 
